US20260078108A1, “SOLID FORMS OF A ROCK INHIBITOR” (REDX PHARMA PLC, priority 2022, published 2026)
Counter-ions that a name gives are not always drawn.

Columns and labels:
Assay type in all cases: physicochemical
[1] = Longer term stability of HCl salt form II (HPLC, XRPD; 1 and 3 months)
Protocol: Samples were prepared in duplicate for each condition. At day 0 and at 1 month, and 3 months, the samples were analyzed by HPLC and XRPD to check the purity and crystal form, respectively.

[2] = 7-day stability testing of solid forms (HPLC purity, XRPD)
Protocol: About 10 mg of freebase Form I, HCl salt Form II, Succinate Form I and received HCl salt Form I were placed at 60° C./capped and 40° C./75% RH (open), respectively. Samples were prepared in duplicate for each condition. At day 0 and day 7, the samples were analyzed by HPLC and XRPD to check the purity and crystal form, respectively.

[3] = Solubility testing in water, SGF, FaSSIF, FeSSIF at 37° C.; details: for Solubility: 37° C.; for Solubility in SGF (in words): comparison with HCl Salt Form 1
Protocol: About 15 mg of sample was weighed into each sample vial and then 3.0 mL of water, simulated gastric fluid (SGF), Fasted State Simulated Intestinal Fluid (FaSSIF) or Fed State Simulated Intestinal Fluid (FeSSIF) media was added. Samples were prepared in triplicate for each media. The suspensions were kept shaking at 37° C. for up to 24 h. At 0.5, 2 and 24 h, suspensions were filtered and the filtrate was analyzed by HPLC.

[4] = 25° C.±2° C., 60% RH±5% RH, T1 month
[5] = 25° C.±2° C., 60% RH±5% RH, T3 month
[6] = 40° C.±2° C., 74% RH±5% RH, T1 month
[7] = 40° C.±2° C., 74% RH±5% RH, T3 month
[8] = FaSSIF (pH of media 6.5), 0.5 h
[9] = FeSSIF (pH of media 5.0), 0.5 h
[10] = pH of sample in FaSSIF (pH of media 6.5), 0.5 h
[11] = pH of sample in FaSSIF (pH of media 6.5), 2 h
[12] = pH of sample in FaSSIF (pH of media 6.5), 24 h
[13] = pH of sample in FeSSIF (pH of media 5.0), 0.5 h
[14] = pH of sample in FeSSIF (pH of media 5.0), 2 h
[15] = pH of sample in FeSSIF (pH of media 5.0), 24 h
[16] = pH of sample in SGF (pH of media 1.2), 0.5 h
[17] = pH of sample in SGF (pH of media 1.2), 2 h
[18] = pH of sample in SGF (pH of media 1.2), 24 h
[19] = pH of sample in Water (pH of media 7.9), 0.5 h
[20] = pH of sample in Water (pH of media 7.9), 2 h
[21] = pH of sample in Water (pH of media 7.9), 24 h

NCc1ccc(C(=O)Nc2ccncc2F)cc1-c1cccc(C(=O)Nc2ccc(SC[C@H]3CCOC3=O)cc2)c1 [HCl salt Form II]
Longer term stability (in words) ([1]; 25° C./60% RH and accelerated 40° C./75% RH): stable for up to 3 months even under accelerated conditions
Assay by HPLC (water and solvent free)(area) ([1]; 25° C.±2° C., 60% RH±5% RH, T0): 101.6%
Polymorphism by XRPD ([1]; 25° C.±2° C., 60% RH±5% RH, T0): Form II
Total impurities by HPLC ([1]; 25° C.±2° C., 60% RH±5% RH, T0): impurities: 1.0%
Water Content ([1]; 25° C.±2° C., 60% RH±5% RH, T0): 1.8%
Assay by HPLC (water and solvent free)(area) [1, 4]: 101.4%
Polymorphism by XRPD [1, 4]: Form II
Total impurities by HPLC [1, 4]: impurities: 1.1%
Water Content [1, 4]: 1.6%
Assay by HPLC (water and solvent free)(area) [1, 5]: 101.2%
Polymorphism by XRPD [1, 5]: Form II
Total impurities by HPLC [1, 5]: impurities: 1.0%
Water Content [1, 5]: 1.4%
Assay by HPLC (water and solvent free)(area) ([1]; 40° C.±2° C., 74% RH±5% RH, T0): 101.6%
Polymorphism by XRPD ([1]; 40° C.±2° C., 74% RH±5% RH, T0): Form II
Total impurities by HPLC ([1]; 40° C.±2° C., 74% RH±5% RH, T0): impurities: 1.0%
Water Content ([1]; 40° C.±2° C., 74% RH±5% RH, T0): 1.8%
Assay by HPLC (water and solvent free)(area) [1, 6]: 101.4%
Polymorphism by XRPD [1, 6]: Form II
Total impurities by HPLC [1, 6]: impurities: 1.1%
Water Content [1, 6]: 1.5%
Assay by HPLC (water and solvent free)(area) [1, 7]: 101.4%
Polymorphism by XRPD [1, 7]: Form II
Total impurities by HPLC [1, 7]: impurities: 1.1%
Water Content [1, 7]: 1.5%
Purity (area %) ([2]; Day 0, HPLC, listed as HCI salt Form II): 98.65 area %
XRPD (crystal form) ([2]; Day 7, 40° C./75% RH (open)): No change
Purity (area %) ([2]; Day 7, 40° C./75% RH (open), HPLC, listed as HCI salt Form II): 98.48 area %
Decrease in purity versus Day 0 ([2]; Day 7, 40° C./75% RH (open), listed as HCI salt Form II): 0.2 area %
XRPD (crystal form) ([2]; Day 7, 60° C./capped): No change
Purity (area %) ([2]; Day 7, 60° C./capped, HPLC, listed as HCI salt Form II): 98.45 area %
Decrease in purity versus Day 0 ([2]; Day 7, 60° C./capped, listed as HCI salt Form II): 0.2 area %
Solubility [3, 8]: 19 µg/mL
Solubility ([3]; FaSSIF (pH of media 6.5), 2 h): 23 µg/mL
Solubility ([3]; FaSSIF (pH of media 6.5), 24 h): 6 µg/mL
Solubility [3, 9]: 64 µg/mL
Solubility ([3]; FeSSIF (pH of media 5.0), 2 h): 69 µg/mL
solubility at 24 h ([3]; Fed State Simulated Intestinal Fluid (FeSSIF), 37 °C, pH 5, fessif, thermodynamic from solid, FeSSIF (pH of media 5.0), 24 h): 57 µg/mL
Solubility ([3]; SGF (pH of media 1.2), 0.5 h): 2550 µg/mL
Solubility ([3]; SGF (pH of media 1.2), 2 h): 2591 µg/mL
Solubility ([3]; SGF (pH of media 1.2), 24 h): 3372 µg/mL
Solubility in SGF (in words) [3]: more soluble in SGF than HCl Salt Form 1
Solubility ([3]; Water (pH of media 7.9), 0.5 h): 716 µg/mL
Solubility ([3]; Water (pH of media 7.9), 2 h): 696 µg/mL
Solubility ([3]; Water (pH of media 7.9), 24 h): 919 µg/mL
pH [3, 10]: 6.4
pH [3, 11]: 6.4
pH [3, 12]: 6.4
pH [3, 13]: 4.9
pH [3, 14]: 4.9
pH [3, 15]: 4.9
pH [3, 16]: 1.2
pH [3, 17]: 1.4
pH [3, 18]: 1.4
pH [3, 19]: 4.9
pH [3, 20]: 4.8
pH [3, 21]: 6.0

NCc1ccc(C(=O)Nc2ccncc2F)cc1-c1cccc(C(=O)Nc2ccc(SC[C@H]3CCOC3=O)cc2)c1 [HCl salt Form I]
Purity (area %) ([2]; Day 0, HPLC, listed as HCI salt Form I): 97.62 area %
XRPD (crystal form) ([2]; Day 7, 40° C./75% RH (open)): No change
Purity (area %) ([2]; Day 7, 40° C./75% RH (open), HPLC, listed as HCI salt Form I): 97.62 area %
XRPD (crystal form) ([2]; Day 7, 60° C./capped): No change
Purity (area %) ([2]; Day 7, 60° C./capped, HPLC, listed as HCI salt Form I): 97.61 area %

NCc1ccc(C(=O)Nc2ccncc2F)cc1-c1cccc(C(=O)Nc2ccc(SC[C@H]3CCOC3=O)cc2)c1 [Succinate Form I]
Purity (area %) ([2]; Day 0, HPLC): 97.46 area %
Decrease in purity versus Day 0 ([2]; Day 7, 40° C./75% RH (open)): 0.2 area %
XRPD (crystal form) ([2]; Day 7, 40° C./75% RH (open)): No change
Purity (area %) ([2]; Day 7, 40° C./75% RH (open), HPLC): 97.29 area %
Decrease in purity versus Day 0 ([2]; Day 7, 60° C./capped): 0.5 area %
XRPD (crystal form) ([2]; Day 7, 60° C./capped): No change
Purity (area %) ([2]; Day 7, 60° C./capped, HPLC): 96.98 area %
Solubility [3, 8]: 5 µg/mL
Solubility ([3]; FaSSIF (pH of media 6.5), 2 h): 2 µg/mL
Solubility ([3]; FaSSIF (pH of media 6.5), 24 h): 1 µg/mL
Solubility [3, 9]: 188 µg/mL
Solubility ([3]; FeSSIF (pH of media 5.0), 2 h): 173 µg/mL
Solubility ([3]; FeSSIF (pH of media 5.0), 24 h): 46 µg/mL
Solubility ([3]; SGF (pH of media 1.2), 0.5 h): 3837 µg/mL
Solubility ([3]; SGF (pH of media 1.2), 2 h): 3826 µg/mL
Solubility ([3]; SGF (pH of media 1.2), 24 h): 4005 µg/mL
Solubility in SGF (in words) [3]: more soluble in SGF than HCl Salt Form 1
Solubility ([3]; Water (pH of media 7.9), 2 h): 328 µg/mL
Solubility ([3]; Water (pH of media 7.9), 24 h): 546 µg/mL
pH [3, 10]: 5.7
pH [3, 11]: 5.7
pH [3, 12]: 5.6
pH [3, 13]: 4.8
pH [3, 14]: 4.8
pH [3, 15]: 4.8
pH [3, 16]: 1.3
pH [3, 17]: 1.4
pH [3, 18]: 1.3
pH [3, 19]: 4.3
pH [3, 20]: 4.2
pH [3, 21]: 4.1
solubility at 0.5 h ([3]; water, 37 °C, pH 7.9, water, thermodynamic from solid, Water (pH of media 7.9), 0.5 h): 363 µg/mL
